{"source": "patent US8139339B2", "about": "“Modulation of neuromuscular functions with ultrashort electrical pulses” (Old Dominion University Research Foundation, priority 2007, dated 2012)", "key": {"hippocampal CA1 neurons": {"system": "hippocampal CA1 neurons", "conditions": "cited from earlier work"}, "[1]": {"system": "nsPEF-opened conductance pores", "assay": "whole-cell patch clamp of membrane conductance/resistance after nsPEF exposure", "format": "cell-based", "conditions": "for condition of nsPEF-exposed cells: added prior to exposure to 1 or 5 pulses", "source_text": "Patch clamp recording: Cells on a cover slip were transferred into a glass-bottomed chamber (Warner Instruments, Hamden, Conn.) mounted on a motorized stage (Prior Scientific Inc., Rockland, Mass.) of an IX71 FluoView™ 300 confocal laser scanning microscope. Recording pipettes were pulled from 1B150F-4 glass (World Precision Instruments, Sarasota, Fla.) to a tip resistance of 1.5-3 MOhm and moved into a position with a model 6500 hydraulic micromanipulator (Siskiyou, Grants Pass, Oreg.). Electrophysiology data were acquired using a Multiclamp 700B amplifier, Digidata 1322A A-D converter, and pCLAMP 10 software (Molecular Devices, Foster City, Calif.). The analog signal was low-pass filtered at 2 or 5 kHz, and digitized at “oversampling” rates of 10 to 50 kHz. The series resistance was not compensated. Typical values of the seal and access resistance were 4-15 GOhm and 4-10 MOhm, respectively, except for a solution pair HEPES/Cl. […] The data from these experiments were analyzed differently (see below).\nAs shown in the inventors preliminary experiments, nsPEF exposure could be damaging to the gigaohmic seal between the cell membrane and the glass pipette, thereby effectively destroying the patch-clamp recording configuration. […] The exposure of intact (rather than already “patched”) cells effectively removed any concerns about possible artifacts caused by the presence of the glass pipette during the exposure.\nOnce the whole-cell configuration was formed, the membrane resistance and capacitance (Rm and Cm) were measured using the Membrane Test utility of pClamp10 software. The holding level was set at −70 or −60 mV; 10- or 20-mV test pulses were applied at 30- to 100-Hz rates and averaged on-line (n=6-12). The membrane potential (MP) was measured by switching briefly from voltage to current clamp mode at I=0.\nAfter Cm compensation, the holding membrane potential was set to −70 mV. In most experiments, the I-V relationship was obtained by applying voltage ramps, typically from −100 to +100 mV within 20-40 ms, and preceded by a brief step to −100 mV. Passive Gm was determined as the slope of the I-V curve by a best fit linear approximation through a region that contained no visible voltage-gated currents, usually from −80 to −50 mV. As one would expect, these Gm values correlated very closely with the inverse of Rm values measured using the Membrane Test. Erev was determined in a usual manner, as an intercept of the best fit line with abscissa.\nExposure to nsPEF and local E-field modeling: A Blumlein line pulse generator (Kolb, J. F., S. Kono, and K. H. Schoenbach. 2006. Nanosecond pulsed electric field generators for the study of subcellular effects. Bioelectromagnetics 27:172-187) produced nearly rectangular 60-ns pulses that were delivered to the selected cell by a pair of tungsten electrodes (0.125 mm electrode diameter, 0.31 mm gap between the electrodes). With a help of a micromanipulator, the electrodes were positioned 5-10 μm above the surface of the cover slip on the sides of the selected cell; the cell was in the middle of the gap between the electrodes, at a distance of about 50-100 μm from their tips.\nTo check if activation of endogenous NSCCs was responsible (at least in part) for observed nsPEF effects, an attempt was made by the inventors to modify these effects with ruthenium red and with lanthanide ions. It should be noted, however, that these substances are not truly specific and can affects various other channels and intracellular processes.\nRuthenium red was added to the bath solution of the K/Na pair (see Table 1) at 10, 50, or 200 μM prior to exposure to 1 or 5 pulses, and the whole-cell currents were recorded after the exposure in the usual manner."}, "liver cells": {"system": "liver cells", "conditions": "oxidative stress-activated NSCCs; cited from earlier work"}}, "note": "Read-outs that look alike come from different tables or passages of the source."}
{"smiles": "[Cl][La]([Cl])[Cl]", "note": "[La^3+, LaCl3]", "values": [{"measurement": "swelling and other deleterious effects of oxygen-glucose deprivation", "setting": "hippocampal CA1 neurons; 100 μM", "result": "reduced swelling"}]}
{"smiles": "N.N.N.N.N.N.N.N.N.N.N.N.N.N.[Cl-].[Cl-].[Cl-].[Cl-].[Cl-].[Cl-].[O-2].[O-2].[Ru+3].[Ru+3].[Ru+4]", "note": "[ruthenium red]", "values": [{"measurement": "swelling and other deleterious effects of oxygen-glucose deprivation", "setting": "hippocampal CA1 neurons; 1 μM", "result": "reduced swelling"}, {"measurement": "effect on membrane conductance increase by nsPEF", "setting": "[1]; 10 μM in bath of K/Na pair, added prior to exposure", "result": "neither enhanced nor inhibited"}, {"measurement": "effect on control (sham-exposed) cells", "setting": "[1]; 50 μM in bath of K/Na pair", "result": "no apparent effect"}, {"measurement": "condition of nsPEF-exposed cells", "setting": "[1]; 50 μM in bath of K/Na pair", "result": "worsened the condition of nsPEF-exposed cells"}, {"measurement": "effect on control (sham-exposed) cells", "setting": "[1]; 200 μM in bath of K/Na pair", "result": "no apparent effect"}, {"measurement": "condition of nsPEF-exposed cells", "setting": "[1]; 200 μM in bath of K/Na pair", "result": "worsened the condition of nsPEF-exposed cells"}]}
{"smiles": "[Cl][Gd]([Cl])[Cl]", "note": "[Gd^3+, GdCl3]", "values": [{"measurement": "swelling and other deleterious effects of oxygen-glucose deprivation", "setting": "hippocampal CA1 neurons; 100 μM", "result": "reduced swelling"}, {"measurement": "number of necrotic cells", "setting": "liver cells", "result": "sharply decreased"}, {"measurement": "protective effect against nsPEF permeabilization", "setting": "[1]; 0.2 mM, initial trials", "result": "no protection"}]}
